In patent US9220794B2, “Two-photon fluorescent probes for imaging of total sulfide in live cell and tissue, and quantitative estimation of total sulfide concentration using the same” (Korea University Research and Business Foundation, priority 2013, dated 2015):

Legend:
[1] = One-photon absorption and emission spectra, fluorescence quantum yield; type: physicochemical; details: for 10^−4 ε: value is ε×10^−4
Method: The solvatochromic effect observed for the compound of [Chemical Formula 2-6] may have resulted from the […] dipole moment.
Absorption spectra were recorded on the Hewlett-Packard 8453 diode array spectrophotometer and fluorescence spectra were obtained with the Amico-Bowman series 2 luminescence spectrometer with a 1-cm standard quartz cell.

HeLa cells = test: Photostability of TPEF intensity in labeled HeLa cells; type: cell-based, human; details: continuous radiation of fs-pulses for 60 minutes
Excerpt: These findings confirm that the compound of [Chemical Formula 2-6] can measure the total sulfide concentration in living cells by the kinetic method with minimum interference from cytotoxicity and photostability.

rat colon tissue [2] = test: Ratiometric TPM imaging (F2/F1) of rat colon slices; type: in vivo; details: basal, slices labeled with 20 μM 2-6
Method: The utility of the compound of [Chemical Formula 2-6] was investigated in living tissues from a 5-week-old rat colon. The inventors were particularly interested in the mucosa, muscularis mucosae and submucosa because they are invaded in the early stage of tumor (FIG. 4c). Since it takes a long time to stain the tissues during which they may be deformed, excess amount (20 μM) of the compound of [Chemical Formula 2-6] was used to facilitate staining.
Because the structure of the colon tissue is heterogeneous, TPEF intensities were acquired from 150 sections along the z-direction at a depth of about 90-170 μm using two detection windows (1 and 2) to visualize the overall sulfide distribution.
Therefore, the sections were divided into two regions and they were assigned as mucosa (90-150 μm) and submucosa including the muscularis mucosae (151-170 μm).
(§1) Male Sprague-Dawley rats (235-265 g) were divided into two groups (5-FU and control groups). In the 5-FU group, 150 mg/kg of 5-FU (SoloPak Laboratories, Franklin Park, Ill.) were intraperitoneally injected into the rats. The rats of the control group were injected with saline. Each group consisted of 4 rats.
All the rats were injected between 9 pm and 12 midnight, were allowed free access to food and water and were housed in the same room with 8-hour cycles.
(§2) 8 hours after the intraperitoneal injection, all the rats were sacrificed. Laparotomy was performed after anesthetizing the rats.
Slices were prepared from the colon of the rats. The colon slices were cut into 2-cm long segments, opened by longitudinal incision and then treated with Dulbecco's phosphate-buffered saline (D-PBS; […]).
The colon slices were incubated with the compound of [Chemical Formula 2-6] (20 μM) in D-PBS bubbled with 95% O2 and 5% CO2 at 37° C. The colon slices were then moved to glass-bottomed dishes, washed 3 times with D-PBS and observed under a confocal multiphoton microscope.
TPEF intensities were collected using detection windows of 390-450 nm and 520-650 nm, with 110 sections at a depth of 90-150 μm (mucosa) and 40 sections at a depth of 151-170 μm (submucosa).
Then ratiometric images were constructed from the TPEF intensities collected using the two detection window. The F2/F1 ratio was expressed as mean±SD and p was set to be smaller than 0.05.

rat colon tissue [3] = test: Kinetic measurement of total sulfide in rat colon tissue slices; type: in vivo; details: before 5-FU treatment; for total sulfide concentration in colon tissue: probe 2-6; for kobs in colon tissue: tissue labeled with 2-6
Method: To quantitatively estimate the total sulfide concentration, kinetic experiments were performed in the colon tissue labeled with the compound of [Chemical Formula 2-6].
as §1, §2
Kinetic experiments in rat colon tissue were performed using four colon slices obtained from four rats. Two sets of experiments were performed for each slice. In each set, TPEF intensities from 8 ROI's/section were collected at depths of 90-150 μm (mucosa) and 151-170 μm (submucosa) in the colon tissue labeled with the compound of [Chemical Formula 2-6] and averaged.
The rate constant (kobs) was measured from 7 and 3 sections of the mucosa and submucosa tissues, respectively, in order to obtain 112 kobs and 48 kobs values, respectively. The rate constant (kobs) was expressed as mean±SD and p was set to be smaller than 0.05.

[4] = HEPES buffer (20 mM HEPES, 100 mM KCl, pH 7.4)

COCCOCCC1(CCOCCOC)c2cc(NC(=O)OCc3ccc(N=[N+]=[N-])cc3)ccc2-c2ccc(-c3nc4ccccc4s3)cc21 [Chemical Formula 2-6]
Δλmax, shift of absorption spectrum with solvent polarity ([1]; 1,4-dioxane to HEPES buffer): 8 nm | Δλ^FImax, shift of emission spectrum with solvent polarity ([1]; 1,4-dioxane<DMF<EtOH<HEPES/EtOH (1/1)<HEPES buffer): 31 nm | Φ, fluorescence quantum yield ([1]; EtOH): 0.87 | λ^(1)max, one-photon absorption maximum ([1]; EtOH): 354 nm | λ^flmax, one-photon emission maximum ([1]; EtOH): 437 nm | 10^−4 ε ([1]; EtOH): (4.27) M^−1cm^−1 | Φ, fluorescence quantum yield ([1]; HEPES buffer): 0.013 | λ^(1)max, one-photon absorption maximum [1, 4]: 360 nm | λ^flmax, one-photon emission maximum [1, 4]: 444 nm | ε at maximum absorption ([1]; HEPES buffer, pH 7.4): 25000 M⁻¹ cm⁻¹ | Φ, fluorescence quantum yield ([1]; HEPES/EtOH (1/1)): 0.41 | λ^(1)max, one-photon absorption maximum ([1]; HEPES/EtOH (1/1)): 352 nm | λ^flmax, one-photon emission maximum ([1]; HEPES/EtOH (1/1)): 440 nm | 10^−4 ε ([1]; HEPES/EtOH (1/1)): (4.11) M^−1cm^−1 | 10^−4 ε ([1]; HEPES): (2.50) M^−1cm^−1 | photostability (decay of TPEF intensity) (HeLa cells): high photostability | average emission ratio F2/F1 (rat colon tissue [2]; mucosa (90-150 μm)): 0.82±0.07 | average emission ratio F2/F1 (rat colon tissue [2]; submucosa (151-170 μm)): 0.67±0.07 | total sulfide concentration in colon tissue (rat colon tissue [3]; mucosa): 7.0 ± 2.7 µM | kobs in colon tissue (rat colon tissue [3]; mucosa): (2.0±0.8)×10^−5 s^−1 | total sulfide concentration in colon tissue (rat colon tissue [3]; submucosa): 3.8 ± 1.4 µM | kobs in colon tissue (rat colon tissue [3]; submucosa): (1.1±0.5)×10^−5 s^−1
